Laboratory results: patent US8420630B2 (Boehringer Ingelheim Pharma GmbH & Co. KG, priority 2001, dated 2013)
Structures can show the parent of a compound that is named as a salt.

molecular target: T1, CDK1/cyclinB1 (Homo sapiens, UniProt P06493); assay: Cyclin B1-CDK1 kinase inhibition test; assay type: biochemical; details: CDK1 tests (Example 13); recombinant cyclin B1/CDK1, substrate histone H1; read-out: CDK1/cyclinB1 IC50 value
T1 construct: made in house; host or cells: High Five insect cells (Trichoplusia ni), baculovirus coinfection
Procedure: CDK4) were cloned by standard methods using RT-PCR, and cloned into a transfer vector (cyclin in pAcG2T made by Pharmingen, CDKs in p2Bac made by Invitrogen) for the baculovirus system. […] After thawing the cells were resuspended in lysing buffer (50 mM HEPES pH 7.5, 10 mM MgCl2, 1 mM DTT, 5 μg/ml leupeptin, 5 μg/ml aprotinin, 100 μM NaF, 100 μM PMSF, 10 mM β-glycerolphosphate, 100 μM Na3VO4, 30 mM nitrophenylphosphate, 17.5 ml of lysing buffer per 10^8 cells) and incubated on ice for 30 min. […] Cyclin D1-CDK4 was purified by means of a GST-tag on cyclin D1 and then using glutathione beads (total protein about 0.2 mg/ml). All the kinase tests were carried out in 96-well microtitre plates (Greiner PS) in a final volume of 60 μl. […] As a negative control the kinase reaction was carried out in the absence of the substrate histone H1. As a positive control the kinase reaction was carried out in the absence of a test substance. As an internal control 30 μM and 300 μM (final concentration) of the kinase inhibitor olomoucin (Alexis) were used. […] The kinase reaction is started by the addition of 10 μl of ATP mix (0.045 mM ATP, 0.5 μCi ^33P-ATP in kinase buffer) and incubated for 30 min at 30° C. and 600 rpm in a shaking incubator. After incubation the plates were placed on ice and the proteins were precipitated by the addition of 125 μl of ice-cold 5% trichloroacetic acid. After 15 min on ice the precipitates were transferred onto Packard Unifilter 96 GF/B plates with the Packard Harvester System, and collected by vacuum filtration. The precipitates were washed 4 times with dist. H2O at ambient temperature. The filter plates were then dried at 60° C. and 50 μl of scintillation liquid were added to each well (Ultima Gold, Packard). The plate was sealed up with Sealing Tape and after 1 h measured in a scintillation measuring apparatus (Micro Beta made by Wallac).

T1 sequence (P06493 whole entry): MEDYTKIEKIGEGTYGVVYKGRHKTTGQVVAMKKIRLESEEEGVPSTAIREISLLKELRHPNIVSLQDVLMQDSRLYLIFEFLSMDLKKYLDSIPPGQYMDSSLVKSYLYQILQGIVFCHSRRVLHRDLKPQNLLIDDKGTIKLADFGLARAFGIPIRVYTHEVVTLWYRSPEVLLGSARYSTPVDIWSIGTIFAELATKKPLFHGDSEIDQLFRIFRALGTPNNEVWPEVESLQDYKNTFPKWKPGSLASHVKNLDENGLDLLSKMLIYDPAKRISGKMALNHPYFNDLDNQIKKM
T1 sequence (P14635 whole entry partner): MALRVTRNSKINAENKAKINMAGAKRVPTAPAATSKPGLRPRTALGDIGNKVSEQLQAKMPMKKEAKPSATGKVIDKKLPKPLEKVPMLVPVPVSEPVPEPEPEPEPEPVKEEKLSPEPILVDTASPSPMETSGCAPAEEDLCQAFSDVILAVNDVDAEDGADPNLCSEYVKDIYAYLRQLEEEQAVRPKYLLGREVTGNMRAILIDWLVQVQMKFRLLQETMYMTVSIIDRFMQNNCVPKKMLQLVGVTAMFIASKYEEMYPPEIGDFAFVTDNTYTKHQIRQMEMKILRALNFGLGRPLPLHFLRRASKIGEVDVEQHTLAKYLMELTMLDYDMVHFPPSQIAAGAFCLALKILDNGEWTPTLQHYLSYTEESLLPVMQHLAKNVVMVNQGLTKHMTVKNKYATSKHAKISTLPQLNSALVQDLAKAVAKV

Row | IC50 | SMILES
1 | < 100 nM | CC(=O)NCCNc1nc(Nc2ccc3cnn(C)c3c2)ncc1C(F)(F)F [Example 1(654), N-{2-[2-(1-methyl-1H-indazol-6-ylamino)-5-trifluoromethyl-pyrimidin-4-ylamino]-ethyl}-acetamide]
2 | < 100 nM | O=C1CCCN1CCCNc1nc(Nc2cccc(CNCC(F)(F)F)c2)ncc1C(F)(F)F [Example 11(034), 1-[3-(2-{3-[(2,2,2-Trifluoro-ethylamino)-methyl]-phenylamino}-5-trifluoromethyl-pyrimidin-4-ylamino)-propyl]-pyrrolidin-2-one]
3 | < 100 nM | CC(=O)NCCNc1nc(Nc2ccc(C(=O)N(C)C)c(Cl)c2)ncc1C(F)(F)F [Example 8(007), 4-[4-(2-acetylamino-ethylamino)-5-trifluoromethyl-pyrimidin-2-ylamino]-2-chloro-N,N-dimethyl-benzamide]
4 | < 100 nM | CC(=O)NCC(C)(C)Nc1nc(Nc2ccc(S(=O)(=O)N3CCOCC3)cc2)ncc1C(F)(F)F [Example 1(585), N-(2-Methyl-2-{2-[4-(morpholin-4-sulphonyl)-phenylamino]-5-trifluoromethyl-pyrimidin-4-ylamino}-propyl)-acetamide]
5 | < 100 nM | CC(=O)NCCCNc1nc(Nc2ccc(C(N)=O)cc2)ncc1C(F)(F)F [Example 7(027), 4-[4-(3-acetylamino-propylamino)-5-trifluoromethyl-pyrimidin-2-ylamino]-benzamide]
6 | < 100 nM | CN1CCC2(CCN(c3nc(Nc4ccc(Cl)c(Cl)c4)ncc3C(F)(F)F)C2)C1 (centres unmarked) [Example 1(117), 2-(3,4-dichlorophenylamino)-4-(7-methyl-2,7-diaza-spiro[4.4]non-2-yl)-5-trifluoromethyl-pyrimidine]
7 | < 100 nM | CN(C)S(=O)(=O)c1ccc(Nc2ncc(C(F)(F)F)c(NCCN3CCCC3=O)n2)cc1 [Example 1(683), N,N-dimethyl-4-{4-[2-(2-oxo-pyrrolidin-1-yl)-ethylamino]-5-trifluoromethyl-pyrimidin-2-ylamino}-phenylsulphonamide]
8 | < 100 nM | CC(=O)NCCNc1nc(Nc2ccc(S(=O)(=O)Nc3ccccn3)cc2)ncc1C(F)(F)F [Example 2(059), N-(2-{2-[4-(Pyridin-2-ylsulphamoyl)-phenylamino]-5-trifluoromethyl-pyrimidin-4-ylamino}-ethyl)-acetamide]
9 | < 100 nM | CC(=O)NCCNc1nc(Nc2cccc(Cl)c2)ncc1C(F)(F)F [Example 2(009), 2-(3-chloro-phenylamino)-4-(2-acetylamino-ethylamino)-5-trifluoromethyl-pyrimidine]
10 | < 100 nM | COCC(=O)NCCCNc1nc(Nc2ccc(C(N)=O)cc2)ncc1C(F)(F)F [Example 7(028), 4-[4-(3-(2-methoxy-acetamino)-propylamino)-5-trifluoromethyl-pyrimidin-2-ylamino]-benzamide]
11 | < 100 nM | CC(=O)NCCNc1nc(Nc2ccc(S(=O)(=O)N(C)C)cc2)ncc1Br [Example 1(652), N-{2-[5-Bromo-2-(4-dimethylsulphamoyl-phenylamino)-pyrimidin-4-ylamino]-ethyl}-acetamide]
12 | < 100 nM | CC(=O)NCCNc1nc(Nc2ccc(Cl)c(Cl)c2)ncc1C(F)(F)F [Example 2(003), 2-(3,4-dichlorophenylamino)-4-(2-acetylamino-ethylamino)-5-trifluoromethyl-pyrimidine-hydrochloride]
13 | < 100 nM | O=C1CCCN1CCCNc1nc(Nc2cc(Cl)cc(Cl)c2)ncc1C(F)(F)F [Example 1(049), 2-(3,5-dichloro-phenylamino)-4-(3-(2-oxo-pyrrolidin-1-yl)-propyl-1-amino)-5-trifluoromethyl-pyrimidine]
14 | < 100 nM | O=[N+]([O-])c1cccc(Nc2ncc([N+](=O)[O-])c(N3CCCC(CO)C3)n2)c1 (centres unmarked) [Example 1(050), 2-(3-nitro-phenylamino)-4-(3-hydroxymethyl-piperidin-1-yl)-5-nitro-pyrimidine]
15 | < 100 nM | CC(=O)NCCNc1nc(Nc2ccc(S(=O)(=O)N3CCCNCC3)cc2)ncc1C(F)(F)F [Example 2(060), N-(2-{2-[4-(Perhydro-1,4-diazepin-1-sulphonyl)-phenylamino]-5-trifluoromethyl-pyrimidin-4-ylamino}-ethyl)-acetamide]
16 | < 100 nM | CC(=O)N(C)CC1CCN(c2nc(Nc3ccc(Cl)cc3)ncc2[N+](=O)[O-])CC1 [Example 1(052), 2-(4-chloro-phenylamino)-4-(4-(N-acetyl-N-methyl-aminomethyl)-piperidin-1-yl)-5-nitro-pyrimidine]

Row | IC50 | SMILES
17 | < 100 nM | O=C(O)c1ccc(Nc2ncc(C(F)(F)F)c(N3CCc4[nH]cnc4C3)n2)cc1 [Example 1(017), 2-(4-carboxy-phenylamino)-4-(1,4,6,7-tetrahydro-imidazo[4,5-c]pyridin-5-yl)-5-trifluoromethyl-pyrimidine]
18 | < 100 nM | FC(F)(F)c1cnc(Nc2ccc(Cl)cc2)nc1N1CCc2[nH]cnc2C1 [Example 1(004), 2-(4-chlorophenylamino)-4-(1,4,6,7-tetrahydro-imidazo[4,5-c]pyridin-5-yl)-5-trifluoromethyl-pyrimidine]
19 | < 100 nM | CN1CCC(N(C)c2nc(Nc3ccc(Cl)cc3)ncc2[N+](=O)[O-])CC1 [Example 1(044), 2-(4-chloro-phenylamino)-4-(N-(1-methyl-piperidin-4-yl)-N-methyl-amino)-5-nitro-pyrimidine]
20 | < 100 nM | NS(=O)(=O)c1ccc(Nc2ncc([N+](=O)[O-])c(NCCCN3CCCC3=O)n2)cc1 [Example 1(008), 2-(4-aminosulphonyl-phenylamino)-4-(3-(2-oxo-pyrrolidin-1-yl)-propyl-1-amino)-5-nitro-pyrimidine]
21 | < 100 nM | CC(=O)NCCNc1nc(Nc2cccc(Br)c2)ncc1C(F)(F)F [Example 2(012), 2-(3-bromo-phenylamino)-4-(2-acetylamino-ethylamino)-5-trifluoromethyl-pyrimidine]
22 | < 100 nM | CN(C)C(=O)NCCCNc1nc(Nc2ccc3cnn(C)c3c2)ncc1C(F)(F)F [Example 7(035), 1,1-dimethyl-3-{3-[2-(1-methyl-1H-indazol-6-ylamino)-5-trifluoromethyl-pyrimidin-4-ylamino]-propyl}-urea]
23 | < 100 nM | CN(C)S(=O)(=O)c1ccc(Nc2ncc(C(F)(F)F)c(N3CCc4nc[nH]c4C3)n2)cc1 [Example 1(694), N,N-dimethyl-4-[4-(3,4,6,7-tetrahydro-imidazo[4,5-c]pyridin-5-yl)-5-trifluoromethyl-pyrimidin-2-ylamino]-phenylsulphonamide]
24 | < 100 nM | CC(=O)NCCNc1nc(Nc2ccc(Cl)cc2)ncc1C(F)(F)F [Example 2(016), 2-(4-chloro-phenylamino)-4-(2-acetylamino-ethylamino)-5-trifluoromethyl-pyrimidine]
25 | < 100 nM | C#Cc1cnc(Nc2ccc(S(=O)(=O)N(C)C)cc2)nc1NCCNC(C)=O [Example 4(001), N-{2-[2-(4-dimethylsulphamoyl-phenylamino)-5-ethynyl-pyrimidin-4-ylamino]-ethyl}-acetamide]
26 | < 100 nM | CC(=O)NCCNc1nc(Nc2ccc(C(=O)O)cc2)ncc1C(F)(F)F [Example 9(001), 4-[4-(2-acetylamino-ethylamino)-5-trifluoromethyl-pyrimidin-2-ylamino]-benzoic acid]
27 | < 100 nM | O=C1CCCN1CCCNc1nc(Nc2ccc3ccccc3c2)ncc1C(F)(F)F [Example 1(003), 2-(2-naphthylamino)-4-(3-(2-oxo-pyrrolidin-1-yl)-propyl-1-amino)-5-trifluoromethyl-pyrimidine]
28 | < 100 nM | O=[N+]([O-])c1cnc(Nc2ccc(Cl)cc2)nc1N1CCC[C@H]1CO [Example 1(055), 2-(4-chloro-phenylamino)-4-((2S)-2-hydroxymethyl-pyrrolidin-1-yl)-5-nitro-pyrimidine]
29 | < 100 nM | FC(F)(F)c1cnc(Nc2ccc3ccccc3c2)nc1N1CCc2[nH]cnc2C1 [Example 1(152), 2-(2-naphthylamino)-4-(1,4,6,7-tetrahydro-imidazo[4,5-c]pyridin-5-yl)-5-trifluoromethyl-pyrimidine]
30 | < 100 nM | O=[N+]([O-])c1cnc(NCc2ccccc2Br)nc1N1CC[S+]([O-])CC1 [Example 1(628), 2-(2-bromo-benzylamino)-4-(S-oxido-thiomorpholino)-5-nitro-pyrimidine]
31 | < 100 nM | Cc1cc(Nc2ncc([N+](=O)[O-])c(NCC3CCC(CN)CC3)n2)ccc1Cl (centres unmarked) [Example 1(115), 2-(4-chloro-3-methyl-phenylamino)-4-(4-aminomethyl-cyclohexylmethylamino)-5-nitro-pyrimidine]

Row | SMILES | IC50
32 | NCC1CCN(c2nc(Nc3ccc(Br)cc3)ncc2C(F)(F)F)CC1 [Example 1(043)] | < 100 nM
